Laboratory results: paper PMC9116245, “New 1,2,3-triazole linked ciprofloxacin-chalcones induce DNA damage by inhibiting human topoisomerase I& II and tubulin polymerization” (Journal of Enzyme Inhibition and Medicinal Chemistry, 2022)

Legend:
Experiment in all cases: NCI one-dose screen
Type in all cases: cell-based
[1] = tested on: EKVX; details: Homo sapiens, read-out: Growth Percent
In short: (§1)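 Values reflect percent growth of human tumour cells after treatment at a single 10 µM level in the NCI 59-line screening panel.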

[2] = tested on: PC-3; details: Homo sapiens; PC-3, 10 µM; read-out: Growth Percent
In short: as §1

[3] = tested on: OVCAR-4; details: Homo sapiens; OVCAR-4, 10 µM; read-out: Growth Percent
In short: as §1

[4] = tested on: HOP-92; details: Homo sapiens; HOP-92, 10 µM; read-out: Growth Percent
In short: as §1

[5] = tested on: SK-MEL-2; details: Homo sapiens; SK-MEL-2, 10 µM; read-out: Growth Percent
In short: as §1

[6] = tested on: M14; details: Homo sapiens; M14, 10 µM; read-out: Growth Percent
In short: as §1

[7] = tested on: SF-539; details: Homo sapiens; SF-539, 10 µM; read-out: Growth Percent
In short: as §1

[8] = tested on: OVCAR-8; details: Homo sapiens; OVCAR-8, 10 µM; read-out: Growth Percent
In short: as §1

[9] = tested on: UO-31; details: Homo sapiens; UO-31, 10 µM; read-out: Growth Percent
In short: as §1

[10] = tested on: KM12; details: Homo sapiens; KM12, 10 µM; read-out: Growth Percent
In short: as §1

[11] = tested on: HT29; details: Homo sapiens, HT-29; HT29, 10 µM; read-out: Growth Percent
In short: as §1

[12] = tested on: MDA-MB-435; details: Homo sapiens; MDA-MB-435, 10 µM; read-out: Growth Percent
In short: as §1

[13] = tested on: SW-620; details: Homo sapiens; SW-620, 10 µM; read-out: Growth Percent
In short: as §1

[14] = tested on: CCRF-CEM; details: Homo sapiens, read-out: Growth Percent
In short: as §1

[15] = tested on: OVCAR-5; details: Homo sapiens; OVCAR-5, 10 µM; read-out: Growth Percent
In short: as §1

[16] = tested on: HCC-2998; details: Homo sapiens; HCC-2998, 10 µM; read-out: Growth Percent
In short: as §1

[17] = tested on: IGROV1; details: Homo sapiens, IGROV-1; IGROV1, 10 µM; read-out: Growth Percent
In short: as §1

[18] = tested on: SK-MEL-5; details: Homo sapiens; SK-MEL-5, 10 µM; read-out: Growth Percent
In short: as §1

[19] = tested on: NCI-H460; details: Homo sapiens; NCI-H460, 10 µM; read-out: Growth Percent
In short: as §1

[20] = tested on: UACC-62; details: Homo sapiens; UACC-62, 10 µM; read-out: Growth Percent
In short: as §1

[21] = tested on: MDA-MB-231/ATCC; details: Homo sapiens, read-out: Growth Percent
In short: as §1

[22] = tested on: HOP-62; details: Homo sapiens; HOP-62, 10 µM; read-out: Growth Percent
In short: as §1

[23] = tested on: ACHN; details: Homo sapiens, read-out: Growth Percent
In short: as §1

[24] = tested on: SN12C; details: Homo sapiens, read-out: Growth Percent
In short: as §1

[25] = tested on: HS 578T; details: Homo sapiens, read-out: Growth Percent
In short: as §1

[26] = tested on: NCI-H522; details: Homo sapiens; NCI-H522, 10 µM; read-out: Growth Percent
In short: as §1

[27] = tested on: HL-60(TB); details: Homo sapiens, read-out: Growth Percent
[28] = tested on: A498; details: Homo sapiens; A498, 10 µM; read-out: Growth Percent
In short: as §1

Row | SMILES | activity at 10 µM [1] | activity at 10 µM [2] | activity at 10 µM [3] | activity at 10 µM [4] | activity at 10 µM [5] | activity at 10 µM [6] | activity at 10 µM [7] | activity at 10 µM [8] | activity at 10 µM [9] | activity at 10 µM [10] | activity at 10 µM [11] | activity at 10 µM [12] | activity at 10 µM [13] | activity at 10 µM [14] | activity at 10 µM [15] | activity at 10 µM [16] | activity at 10 µM [17] | activity at 10 µM [18] | activity at 10 µM [19] | activity at 10 µM [20] | further results
1 | O=C(/C=C/c1ccc(Br)cc1)c1ccc(-n2cc(CN3CCN(c4cc5c(cc4F)c(=O)c(C(=O)O)cn5C4CC4)CC3)nn2)cc1 [Compound 4d, (E)-7-(4-((1-(4-(3-(4-bromophenyl)acryloyl)phenyl)-1H-1,2,3-triazol-4-yl)methyl)piperazin-1-yl)-1-cyclopropyl-6-fluoro-4-oxo-1,4-dihydroquinoline-3-carboxylic acid] | 80.8% | 84.7% | 96.7% | 88% | 102% | 88.1% | 82.5% | 80.7% | 65.4% | 87.1% | 99.2% | 81.9% | 85.9% | 34.6% | 92.7% | 83.3% | 79.4% | 79.7% | 85.9% | 72.8% | activity at 10 µM [21]: 66.4%; activity at 10 µM [22]: 85.4%; activity at 10 µM [23]: 93.4%; activity at 10 µM [24]: 58.8%; activity at 10 µM [25]: 71.2%; activity at 10 µM [26]: 88%; activity at 10 µM [27]: 98.8%; activity at 10 µM [28]: 34.9%
2 | Cc1ccc(/C=C/C(=O)c2ccc(-n3cc(CN4CCN(c5cc6c(cc5F)c(=O)c(C(=O)O)cn6C5CC5)CC4)nn3)cc2)cc1 [Compound 4f, (E)-1-cyclopropyl-6-fluoro-4-oxo-7-(4-((1-(4-(3-(p-tolyl)acryloyl)phenyl)-1H-1,2,3-triazol-4-yl)methyl)piperazin-1-yl)-1,4-dihydroquinoline-3-carboxylic acid] | 90.7% | 82% | 91.4% | 84.6% | 97.2% | 87% | 83% | 79% | 65.7% | 88.8% | 91.7% | 86.6% | 95.5% | 56.3% | 99.5% | 98.5% | 74.2% | 91.1% | 85.8% | 83% | activity at 10 µM [21]: 80.1%; activity at 10 µM [22]: 87.4%; activity at 10 µM [23]: 93.7%; activity at 10 µM [24]: 44.9%; activity at 10 µM [25]: 83.6%; activity at 10 µM [26]: 78.3%; activity at 10 µM [27]: 94.3%; activity at 10 µM [28]: 57.4%
3 | CN(C)c1ccc(/C=C/C(=O)c2ccc(-n3cc(CN4CCN(c5cc6c(cc5F)c(=O)c(C(=O)O)cn6C5CC5)CC4)nn3)cc2)cc1 [Compound 4h, (E)-1-cyclopropyl-7–(4-((1–(4-(3-(4-(dimethylamino)phenyl)acryloyl)phenyl)-1H-1,2,3-triazol-4-yl)methyl)piperazin-1-yl)-6-fluoro-4-oxo-1,4-dihydroquinoline-3-carboxylic acid] | 96% | 89.6% | 94.8% | 76.2% | 95.5% | 87.4% | 73.6% | 62.5% | 61.9% | 84.1% | 98.9% | 77.4% | 98.5% | 84.3% | 109% | 92.4% | 69.9% | 86.2% | 89.7% | 77.6% | activity at 10 µM [21]: 75.5%; activity at 10 µM [22]: 81.3%; activity at 10 µM [23]: 89.8%; activity at 10 µM [24]: 67.7%; activity at 10 µM [25]: 80.5%; activity at 10 µM [26]: 88.6%; activity at 10 µM [27]: 98.8%; activity at 10 µM [28]: 64.5%
4 | O=C(/C=C/c1ccc(Cl)cc1)c1ccc(-n2cc(CN3CCN(c4cc5c(cc4F)c(=O)c(C(=O)O)cn5C4CC4)CC3)nn2)cc1 [Compound 4c, (E)-7-(4-((1-(4-(3-(4-chlorophenyl)acryloyl)phenyl)-1H-1,2,3-triazol-4-yl)methyl)piperazin-1-yl)-1-cyclopropyl-6-fluoro-4-oxo-1,4-dihydroquinoline-3-carboxylic acid] | 94% | 79.3% | 89.7% | 79.6% | 96.8% | 84.4% | 69% | 62% | 62.5% | 73.7% | 79.2% | 79.5% | 83.7% | 64.9% | 92.2% | 88.3% | 84% | 77.6% | 76.1% | 73.8% | activity at 10 µM [21]: 89.4%; activity at 10 µM [22]: 79.6%; activity at 10 µM [23]: 93.5%; activity at 10 µM [24]: 45.8%; activity at 10 µM [25]: 67.4%; activity at 10 µM [26]: 80.1%; activity at 10 µM [27]: 99.1%; activity at 10 µM [28]: 52.2%
5 | O=C(/C=C/c1cccc(Cl)c1)c1ccc(-n2cc(CN3CCN(c4cc5c(cc4F)c(=O)c(C(=O)O)cn5C4CC4)CC3)nn2)cc1 [Compound 4b, (E)-7-(4-((1–(4-(3-(3-chlorophenyl)acryloyl)phenyl)-1H-1,2,3-triazol-4-yl)methyl)piperazin-1-yl)-1-cyclopropyl-6-fluoro-4-oxo-1,4-dihydroquinoline-3-carboxylic acid] | 85% | 74% | 62.9% | 79.3% | 93% | 79% | 60.1% | 42.7% | 52.6% | 29.9% | 53.3% | 74% | 85.4% | 29.9% | 84.7% | 59.3% | 51.8% | 78.7% | 66.7% | 61.2% | activity at 10 µM [21]: 73.6%; activity at 10 µM [22]: 67.7%; activity at 10 µM [23]: 77.7%; activity at 10 µM [24]: 37.6%; activity at 10 µM [25]: 73.7%; activity at 10 µM [26]: 83.9%; activity at 10 µM [27]: 90.3%; activity at 10 µM [28]: 70.8%
6 | COc1cc(/C=C/C(=O)c2ccc(-n3cc(CN4CCN(c5cc6c(cc5F)c(=O)c(C(=O)O)cn6C5CC5)CC4)nn3)cc2)cc(OC)c1OC [Compound 4j, (E)-1-cyclopropyl-6-fluoro-4-oxo-7–(4-((1–(4-(3-(3,4,5-trimethoxyphenyl)acryloyl)phenyl)-1H-1,2,3-triazol-4-yl)methyl)piperazin-1-yl)-1,4-dihydroquinoline-3-carboxylic acid] | 80% | 9.95% | 73.7% | 81.6% | 97.4% | 28.2% | 7.09% | 39.7% | 43.5% | 8.81% | 4.76% | 5.4% | 9.41% | 3.05% | 72.3% | -39.7% | -24.8% | 50.9% | 53.1% | 54.1% | activity at 10 µM [21]: 55.4%; activity at 10 µM [22]: 38.7%; activity at 10 µM [24]: 14.9%; activity at 10 µM [25]: 21.5%; activity at 10 µM [26]: 49.5%; activity at 10 µM [27]: 45%; activity at 10 µM [28]: 54.4%
